Data set [1] concerns the target T1, human MCHR1 (Homo sapiens, UniProt Q99705).
T1 construct: expressed in transfected cells; host or cells: CHO cell clone 57 (membrane fraction)
Briefly: Human MCH receptor 1 (MCHR1) competitive binding assay, [125I]-MCH(4-19), CHO cell membrane fraction. The following applies: test compound 0.1 μM, human MCHR1-expressing CHO cell membrane, 25° C., 1 hr, read-out: Binding inhibition rate (0.1 μM). On the procedure:
Determination of Human MCH Receptor 1 (MCHR1) Competitive Inhibitory Activity of Test Compound Using Binding Assay
Using human MCHR1(=SLC-1 receptor)-expressing CHO cell clone 57 and rat MCHR1-expressing CHO cell clone 44 described in WO01/82925, MCHR1-expressing CHO cellular membrane fractions were prepared by the following method. In phosphate buffered saline (pH 7.4) supplemented with 5 mM EDTA (ethylenediaminetetraacetic acid) were respectively suspended human and rat MCHR1-expressing CHO cells (1×10^8 cells) and centrifuged. Homogenate buffer (10 mL, 10 mM NaHCO3, 5 mM EDTA, pH 7.5, 0.5 mM PMSF (phenylmethylsulfonyl fluoride), 20 mg/L leupeptin, 4 mg/L E-64, 1 mg/L pepstatin A) was added to the pellets of the cells and, using Polytron Homogenizer, the mixture was homogenated. The supernatant obtained after centrifugation at 400×g for 10 min was further centrifuged at 100,000×g for 1 hr to give precipitate of the membrane fraction. The precipitate were suspended in 2 mL of assay buffer [20 mM Tris-HCl (pH 7.5), 5 mM EDTA, 0.5 mM PMSF, 20 mg/L leupeptin, 4 mg/L E-64, 1 mg/L pepstatin A]. The membrane fractions were suspended in assay buffer to a protein concentration of 2 mg/mL, and after dispensing, preserved at −80° C. and used upon thawing each time when in use.
The MCHR1 ligand binding inhibitory activity of the test compound was determined as follows. An MCHR1-expressing CHO cellular membrane fraction (175 μL) diluted with an assay buffer was dispensed to a 96 well polypropylene plate (3363, Corning). DMSO solution (2 μL), 100 μm cold MCH(1-19) diluted with DMSO solution (2 μL), or a test compound solution diluted with DMSO solution to various concentrations (2 μL) was added, and lastly, [^125I]-MCH(4-19) diluted with assay buffer (25 μL) was added to each well. The reaction mixture was reacted at 25° C. for 1 hr with stirring, and the reaction mixture was filtered by suction using a glass filter plate (GF/C, PerkinElmer). The filter was washed 3 times with a wash solution (300 μL, 50 mM Tris-HCl buffer, pH 7.5). The glass filter plate was dried, a liquid scintillator was added at 25 μL/well, and the residual radioactivity was measured by TopCount (PerkinElmer). The binding inhibition rate of the test compound was calculated by the following formula. Binding inhibition (%)=(radioactivity upon addition of test compound and hot MCH−radioactivity upon addition of cold MCH and hot MCH solution)/(radioactivity upon addition of DMSO solution and hot MCH−radioactivity upon addition of cold MCH and hot MCH solution)×100

The test system of data set [2] is Dietary obese male F344/Jcl rats. Briefly: Anorectic effect (food intake) in dietary obese male F344/Jcl rats. It counts as in vivo. The following applies: Rattus norvegicus, 48 h; oral, 0.5% methylcellulose suspension (5 mg/mL) at 2 mL/kg, on start day and evening of next day; food intake from initial administration to 2 days later; vs control group; read-out: Food intake inhibition rate (%). The source says: Evaluation of Anorectic Effect Using Dietary Obese Male F344/Jcl Rats
Dietary obese male F344/Jcl rats (42-57-week-old) reared on a high-fat diet (Research Diets: D12451) from 5 weeks of age were used. From before the start of experiment, the rats were independently raised, a powder high-fat diet (Research Diets: D12451M) was given, tap water was orally administered for acclimation, and thereby the rats were habituated. The food intake from the evening of the day before the start of experiment to the next morning was measured, and the rats were grouped based on the food intake and the body weight of the previous day as indices. On the day of the start of experiment and in the evening of the next day, 0.5% methylcellulose solution was orally administered to the control group, and 0.5% methylcellulose suspension (5 mg/mL) of the test compound was orally administered to the compound administration group at 2 mL/kg (6 per group for both control group and compound administration group). The food intake from the initial administration to 2 days later was measured. The food intake inhibition rate of each compound administration group to the control group was calculated.

The target of data set [3] is T1, human MCHR1. Kind of data set: MCH receptor 1 antagonistic activity, Ca2+ mobilization assay in human MCHR1-expressing CHO cells. The following applies: test compound 0.1 μM; human MCHR1-expressing CHO cell; ligand MCH (4-19) peptide 20 nM; Fluo4 fluorescence; read-out: Inhibition rate (%). It counts as cell-based. On the procedure: Measurement of MCH Receptor 1 Antagonistic Activity of Test Compound Using Ca^2+ Mobilization Assay
CHO cell (CHO dhfr^−, clone #4) expressing a recombinant human MCHR1 gene for Ca^2+ mobilization assay was prepared by us. The cell was cultured in MEMα medium [445 mL of MEMα medium without nucleic acid and added with 5 mL of Penicillin-Streptomycin (Invitrogen) and 50 mL of dialyzed fetal bovine serum]. An integrated dispensing function fluorometer (CellLux, PerkinElmer) was used for Ca^2+ mobilization assay. CHO cells were sown in a 96 well plate (type 3904, Corning) with a black plate wall and clear well bottom at a density of 20000 cells/well, and cultured in an incubator for about 24 hr at 5% CO2, 37° C. The medium was removed, and the cells were washed with phosphate buffered saline (PBS). A Ca^2+ indicator dye reagent (DOJINDO LABORATORIES, Ca screening no-wash kit Fluo4) was added at 90 μL/well, and the dye was allowed to penetrate into the cell for 30 min in an incubator at 5% CO2, 37° C. The plate was set on a plate reader, a test compound solution diluted with an assay buffer [10 mM HEPES (pH 7.4), 1× assay buffer containing 0.1% BSA (DOJINDO LABORATORIES, attached to Ca screening no-wash kit Fluo4)] or DMSO solution was added at 10 μL/well, and ligand MCH (4-19) peptide (final concentration 20 nM) diluted with assay buffer or DMSO was added at 50 μL/well, during which changes in intracellular fluorescence were measured at 2 second intervals. The antagonistic activity of the test compound was calculated and shown as an inhibition rate (%) wherein the intracellular fluorescence activity resulting from the stimulation by the addition of ligand MCH (4-19) peptide was 100% and that of the well added with DMSO solution alone was 0%.

Results on 14 compounds are retold here after patent US8642770B2, “Indole derivative” (Takeda Pharmaceutical Company Limited, priority 2010, dated 2014).

By melting point is commonly meant the temperature, or range, at which the solid turns liquid. As a reminder, the inhibition is the drop in the measured response relative to a control, in per cent.

Molecules are shown by their SMILES.

T1 sequence (Q99705 whole entry): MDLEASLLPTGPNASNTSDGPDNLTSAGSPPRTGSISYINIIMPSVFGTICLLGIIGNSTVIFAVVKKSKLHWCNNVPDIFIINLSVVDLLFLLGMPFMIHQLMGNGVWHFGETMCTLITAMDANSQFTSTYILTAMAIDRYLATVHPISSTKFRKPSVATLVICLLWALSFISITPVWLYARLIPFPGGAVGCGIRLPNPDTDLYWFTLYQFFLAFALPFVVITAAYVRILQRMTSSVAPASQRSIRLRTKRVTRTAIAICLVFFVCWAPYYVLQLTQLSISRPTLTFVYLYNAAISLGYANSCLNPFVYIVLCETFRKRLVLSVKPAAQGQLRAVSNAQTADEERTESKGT

In the case of `Cn1c(CNC2CCS(=O)(=O)CC2)cc2cc(NC(=O)c3ccc(OCC4CC4)cc3)ccc21` [Example 6, 4-(cyclopropylmethoxy)-N-(2-{[(1,1-dioxidotetrahydro-2H-thiopyran-4-yl)amino]methyl}-1-methyl-1H-indol-5-yl)benzamide], the melting point lay within 200 to 201 °C. Besides, the inhibition at 0.1 µM in data set [1] was found to be 82%.

`Cn1c(CNCC(C)(C)C)cc2cc(NC(=O)c3ccc(OC[C@@H]4CCCO4)cc3)ccc21` [Example 15, N-(2-{[(2,2-dimethylpropyl)amino]methyl}-1-methyl-1H-indol-5-yl)-4-[(2S)-tetrahydrofuran-2-ylmethoxy]benzamide acetate]: the inhibition in vivo at 10 mg/kg in data set [2] amounted to 12.7%. Besides, in data set [1], the inhibition at 0.1 µM stood at 96%.

With `Cn1c(CNCC2CCOCC2)cc2cc(NC(=O)c3ccc(OC[C@@H]4CCCO4)cc3)ccc21` [Example 17, N-(1-methyl-2-{[(tetrahydro-2H-pyran-4-ylmethyl)amino]methyl}-1H-indol-5-yl)-4-[(2S)-tetrahydrofuran-2-ylmethoxy]benzamide], the melting point is 157 to 158 °C. Further, the inhibition in vivo at 10 mg/kg in data set [2] is 14.7%. Further, the inhibition at 0.1 µM in data set [3] amounted to 97%. Moreover, the inhibition at 0.1 µM in data set [1] is 97%.

On to `Cn1c(CNCC2CCOC2)cc2cc(NC(=O)c3ccc(OC[C@@H]4CCCO4)cc3)ccc21` (stereo partly drawn) [Example 20, N-(1-methyl-2-{[(tetrahydrofuran-3-ylmethyl)amino]methyl}-1H-indol-5-yl)-4-[(2S)-tetrahydrofuran-2-ylmethoxy]benzamide], for which the melting point lay in the range of 128 to 129 °C. In addition, the inhibition in vivo at 10 mg/kg in data set [2] came out at 20.3%. The inhibition at 0.1 µM in data set [1] was determined as 91%.

`Cc1c(NC(=O)c2ccc(OC[C@@H]3CCCO3)cc2)ccc2c1cc(CNCC(C)(C)C)n2C` [Example 51, N-(2-{[(2,2-dimethylpropyl)amino]methyl}-1,4-dimethyl-1H-indol-5-yl)-4-[(2S)-tetrahydrofuran-2-ylmethoxy]benzamide]: the melting point was 179 °C. The inhibition at 0.1 µM in data set [1] came out at 92%.

For the compound `Cc1c(NC(=O)c2ccc(OC[C@@H]3CCCO3)cc2)ccc2c1cc(CN[C@H]1CC[C@](C)(O)CC1)n2C` [Example 53-2, N-(2-{[(trans-4-hydroxy-4-methylcyclohexyl)amino]methyl}-1,4-dimethyl-1H-indol-5-yl)-4-[(2S)-tetrahydrofuran-2-ylmethoxy]benzamide], the melting point came to 200 °C. Moreover, in data set [3], the inhibition at 0.1 µM is 96%. In data set [1], the inhibition at 0.1 µM turned out to be 97%.

As for `Cc1c(NC(=O)c2ccc(OCC3CC3)cc2)ccc2cc(CNCC(C)(C)O)[nH]c12` [Example 63, 4-(cyclopropylmethoxy)-N-(2-{[(2-hydroxy-2-methylpropyl)amino]methyl}-7-methyl-1H-indol-6-yl)benzamide], the melting point was 170 °C. Moreover, in data set [1], the inhibition at 0.1 µM turned out to be 98%.

`Cc1c(NC(=O)c2ccc(OCC3CC3)cc2)ccc2cc(CN[C@H]3CC[C@](C)(O)CC3)[nH]c12` [Example 67, 4-(cyclopropylmethoxy)-N-(2-{[(trans-4-hydroxy-4-methylcyclohexyl)amino]methyl}-7-methyl-1H-indol-6-yl)benzamide]: the melting point lay in the range of 91 to 103 °C. In addition, the inhibition at 0.1 µM in data set [1] came to 101%.

`Cc1c(NC(=O)c2ccc(OC[C@@H]3CCCO3)cc2)ccc2cc(CNCC3CCOCC3)[nH]c12` [Example 70, N-(7-methyl-2-{[(tetrahydro-2H-pyran-4-ylmethyl)amino]methyl}-1H-indol-6-yl)-4-[(2S)-tetrahydrofuran-2-ylmethoxy]benzamide] yielded a melting point of 161 to 162 °C. Also, the inhibition at 0.1 µM in data set [1] turned out to be 95%.

The compound `Cc1c(NC(=O)c2ccc(OC[C@@H]3CCCO3)cc2)ccc2cc(CN3CCCC3)[nH]c12` [Example 74, N-[7-methyl-2-(pyrrolidin-1-ylmethyl)-1H-indol-6-yl]-4-[(2S)-tetrahydrofuran-2-ylmethoxy]benzamide] came in with a melting point of 172 to 173 °C. In data set [1], the inhibition at 0.1 µM was determined as 91%.

For `Cc1c(NC(=O)c2ccc(OC[C@@H]3CCCO3)cc2)ccc2cc(CN3CCC(C)(O)CC3)[nH]c12` [Example 75, N-{2-[(4-hydroxy-4-methylpiperidin-1-yl)methyl]-7-methyl-1H-indol-6-yl}-4-[(2S)-tetrahydrofuran-2-ylmethoxy]benzamide], the melting point amounted to 169 °C. The inhibition in vivo at 10 mg/kg in data set [2] stood at 17.1%. In data set [1], the inhibition at 0.1 µM is 94%.

As to `Cc1c(NC(=O)c2ccc(OCC3CC3)cc2)ccc2cc(CNCC(C)(C)O)n(C)c12` [Example 78, 4-(cyclopropylmethoxy)-N-(2-{[(2-hydroxy-2-methylpropyl)amino]methyl}-1,7-dimethyl-1H-indol-6-yl)benzamide], the melting point is 180 °C. Besides, the inhibition at 0.1 µM in data set [1] came to 91%.

The compound `Cc1c(NC(=O)c2ccc(OC[C@@H]3CCCO3)cc2)ccc2cc(CNCC3CCOCC3)n(C)c12` [Example 83, N-(1,7-dimethyl-2-{[(tetrahydro-2H-pyran-4-ylmethyl)amino]methyl}-1H-indol-6-yl)-4-[(2S)-tetrahydrofuran-2-ylmethoxy]benzamide] displayed a melting point of 197 to 198 °C. In addition, the inhibition at 0.1 µM in data set [3] came to 96%. Also, the inhibition at 0.1 µM in data set [1] amounted to 99%.

In turn, `Cc1c(CNCC(C)(C)C)[nH]c2c(F)c(NC(=O)c3ccc(OC[C@@H]4CCCO4)cc3)ccc12` [Example 103, N-(2-{[(2,2-dimethylpropyl)amino]methyl}-7-fluoro-3-methyl-1H-indol-6-yl)-4-[(2S)-tetrahydrofuran-2-ylmethoxy]benzamide] came in with a melting point of 159 to 160 °C. Moreover, in data set [1], the inhibition at 0.1 µM was found to be 100%.
